Calls of active or inactive are those of the source. The calls are words filed in the database; no cut-off is given here.
How the values were obtained:
SNU-387 [1] = experiment: Synergistic antiproliferative activity against human SNU-387 cells at 200 nM measured after 5 days in presence of navitoclax by crystal violet staining based assay; type: functional, cell-based; details: time 5.0 day
SNU-387 [2] = experiment: Antiproliferative activity against human SNU-387 cells incubated for 5 days by XTT assay; type: functional, cell-based; details: time 5.0 day
Huh-7 [3] = experiment: Induction of apoptosis in human Huh-7 cells assessed as down regulation of cyclin B1 expression at 200 nM measured upto 5 days by Western blot analysis; type: functional, cell-based; details: time day <=5
HCT-116 [4] = experiment: Induction of apoptosis in human HCT-116 cells assessed as upregulation of p21 expression measured after 3 days by Western blot analysis; type: functional, cell-based; details: time 3.0 day
HCT-116 [5] = experiment: Cell cycle arrest in human HCT-116 cells assessed as accumulation in G2/M phase incubated for 3 days; type: functional, cell-based; details: time 3.0 day
Hep 3B2 [6] = experiment: Induction of apoptosis in human Hep3B cells assessed as increase in phospho-gammaH2A.X expression level at 200 nM measured upto 5 days by Western blot analysis; type: functional, cell-based; details: time day <=5
MDA-MB-468 = experiment: Cytotoxicity against human MDA-MB-468 cells assessed as reduction in cell viability incubated for 5 days by XTT assay; type: functional, cell-based; details: time 5.0 day
SW-620 = experiment: Antiproliferative activity against human SW-620 cells; type: functional, cell-based
HCT-116 [7] = experiment: Induction of apoptosis in human HCT-116 cells assessed as upregulation of phospho-gammaH2A.X expression measured after 3 days by Western blot analysis; type: functional, cell-based; details: time 3.0 day
[8] = Stability of compound in glutathione at pH 7.4 assessed as half life by HPLC analysis; type: physicochemical; details: glutathione solution, time 5 min
[9] = molecular target: MAP kinase-activated protein kinase 3 (Homo sapiens, UniProt Q16644); experiment: Inhibition of human recombinant MAPKAPK3 expressed in Sf9 insect cells using [KKLNRTLSVA] as substrate in presence of [33P]-ATP by radiometric hotspot kinetic assay
HCT-116 [10] = experiment: Antiproliferative activity against human HCT-116 cells; type: functional, cell-based
Huh-7 [11] = experiment: Induction of cell senescence in human Huh-7 cells at 200 uM measured up to 5 days by SA-beta-gal-staining based assay; type: functional; details: time day <=5
[12] = molecular target: T1, Dual specificity protein kinase TTK (Homo sapiens, UniProt P33981); experiment: Inhibition of recombinant human full length N-terminal GST-fused MPS1 (1 to 857 residues) using histone H3 as substrate measured after 4 hrs in presence of DTT by TR-FRET assay
T1 sequence (P33981 whole entry): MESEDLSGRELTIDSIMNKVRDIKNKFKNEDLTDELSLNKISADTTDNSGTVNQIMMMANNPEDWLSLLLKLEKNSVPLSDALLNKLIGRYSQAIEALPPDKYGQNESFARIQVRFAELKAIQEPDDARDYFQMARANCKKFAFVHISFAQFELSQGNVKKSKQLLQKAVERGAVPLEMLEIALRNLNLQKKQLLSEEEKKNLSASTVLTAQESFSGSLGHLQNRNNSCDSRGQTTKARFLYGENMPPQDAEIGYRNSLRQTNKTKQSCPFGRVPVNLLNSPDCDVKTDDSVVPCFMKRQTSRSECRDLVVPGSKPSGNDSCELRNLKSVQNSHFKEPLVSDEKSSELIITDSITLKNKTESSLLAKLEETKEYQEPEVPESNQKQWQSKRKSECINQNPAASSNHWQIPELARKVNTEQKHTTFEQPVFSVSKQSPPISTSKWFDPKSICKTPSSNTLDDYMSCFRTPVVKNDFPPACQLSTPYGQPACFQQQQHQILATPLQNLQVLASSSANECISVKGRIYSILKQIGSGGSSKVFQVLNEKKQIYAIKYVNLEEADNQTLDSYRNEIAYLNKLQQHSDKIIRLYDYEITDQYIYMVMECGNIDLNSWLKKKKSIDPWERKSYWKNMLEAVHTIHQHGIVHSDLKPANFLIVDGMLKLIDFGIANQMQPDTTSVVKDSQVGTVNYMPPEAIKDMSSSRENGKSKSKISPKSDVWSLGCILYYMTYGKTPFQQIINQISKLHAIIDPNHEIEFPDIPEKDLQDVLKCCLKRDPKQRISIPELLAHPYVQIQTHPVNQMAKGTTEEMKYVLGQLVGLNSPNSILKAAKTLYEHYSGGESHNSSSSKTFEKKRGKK

MDA-MB-231 = experiment: Cytotoxicity against human MDA-MB-231cells assessed as reduction in cell viability incubated for 5 days by XTT assay; type: functional, cell-based; details: time 5.0 day
HLE = experiment: Antiproliferative activity against human HLE cells incubated for 5 days by XTT assay; type: functional, cell-based; details: time 5.0 day
[13] = molecular target: MAP kinase-activated protein kinase 2 (Homo sapiens, UniProt P49137); experiment: Inhibition of human recombinant MAPKAPK2 expressed in Sf9 insect cells using [KKLNRTLSVA] as substrate in presence of [33P]-ATP by radiometric hotspot kinetic assay
[14] = molecular target: T1, Dual specificity protein kinase TTK; experiment: Displacement of tracer K9 from NanoLuc-fused MPS1 (unknown origin) expressed in HEK293T cells measured after 2 hrs by NanoBRET assay; type: cell-based
SK-HEP1 = experiment: Antiproliferative activity against human SK-HEP1 cells incubated for 5 days by XTT assay; type: functional, cell-based; details: time 5.0 day
HCC 2998 = experiment: Antiproliferative activity against human HCC 2998 cells; type: functional, cell-based
SNU-387 [15] = experiment: Induction of apoptosis in human SNU-387 cells assessed as increase in phospho-gammaH2A.X expression level at 200 nM measured upto 5 days by Western blot analysis; type: functional, cell-based; details: time day <=5
Huh-7 [16] = experiment: Induction of apoptosis in human Huh-7 cells assessed as increase in p21 expression level at 200 nM measured upto 5 days by Western blot analysis; type: functional, cell-based; details: time day <=5
[17] = molecular target: T1, Dual specificity protein kinase TTK; experiment: Inhibition of recombinant human full length N-terminal GST-fused MPS1 (1 to 857 residues) using histone H3 as substrate measured immediately in presence of DTT by TR-FRET assay
Huh-7 [18] = experiment: Induction of apoptosis in human Huh-7 cells assessed as increase in phospho-gammaH2A.X expression level at 200 nM measured upto 5 days by Western blot analysis; type: functional, cell-based; details: time day <=5
[19] = molecular target: T1, Dual specificity protein kinase TTK; experiment: Covalent inhibition of human full length N-terminal GST-fused MPS1 (1 to 857 residues) assessed as inhibition constant by TR-FRET assay
[20] = molecular target: Ribosomal protein S6 kinase beta-2 (Homo sapiens, UniProt Q9UBS0); experiment: Inhibition of human recombinant P70S6Kbeta expressed in Sf9 insect cells using [KKRNRTLTK] as substrate in presence of [33P]-ATP by radiometric hotspot kinetic assay
HCT-116 [21] = experiment: Cytotoxicity against human HCT-116 cells assessed as reduction in cell viability incubated for 5 days by XTT assay; type: functional, cell-based; details: time 5.0 day
[22] = molecular target: T1, Dual specificity protein kinase TTK; experiment: Inhibition of recombinant human full length N-terminal GST-fused MPS1 (1 to 857 residues) using histone H3 as substrate measured after 1 hr in presence of DTT by TR-FRET assay
Hep 3B2 [23] = experiment: Induction of apoptosis in human Hep3B cells assessed as increase in p21 expression level at 200 nM measured upto 5 days by Western blot analysis; type: functional, cell-based; details: time day <=5
Hep 3B2 [24] = experiment: Induction of cell senescence in human Hep3B cells at 200 uM measured up to 5 days by SA-beta-gal-staining based assay; type: functional; details: time day <=5
HT-29 = experiment: Antiproliferative activity against human HT-29 cells; type: functional, cell-based

Chain of MAP kinase-activated protein kinase 3 (Q16644 whole entry): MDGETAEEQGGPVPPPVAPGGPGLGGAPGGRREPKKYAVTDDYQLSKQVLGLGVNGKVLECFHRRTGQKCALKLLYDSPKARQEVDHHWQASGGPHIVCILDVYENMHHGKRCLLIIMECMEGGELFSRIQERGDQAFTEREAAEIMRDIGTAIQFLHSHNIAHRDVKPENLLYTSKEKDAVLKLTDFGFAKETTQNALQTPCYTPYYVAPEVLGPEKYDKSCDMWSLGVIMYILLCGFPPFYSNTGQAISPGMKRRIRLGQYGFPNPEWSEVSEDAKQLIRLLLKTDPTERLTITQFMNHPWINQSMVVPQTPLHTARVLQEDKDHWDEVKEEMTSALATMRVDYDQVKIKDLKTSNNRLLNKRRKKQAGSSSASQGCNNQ
Chain of MAP kinase-activated protein kinase 2 (P49137 whole entry, the tested form may be a part): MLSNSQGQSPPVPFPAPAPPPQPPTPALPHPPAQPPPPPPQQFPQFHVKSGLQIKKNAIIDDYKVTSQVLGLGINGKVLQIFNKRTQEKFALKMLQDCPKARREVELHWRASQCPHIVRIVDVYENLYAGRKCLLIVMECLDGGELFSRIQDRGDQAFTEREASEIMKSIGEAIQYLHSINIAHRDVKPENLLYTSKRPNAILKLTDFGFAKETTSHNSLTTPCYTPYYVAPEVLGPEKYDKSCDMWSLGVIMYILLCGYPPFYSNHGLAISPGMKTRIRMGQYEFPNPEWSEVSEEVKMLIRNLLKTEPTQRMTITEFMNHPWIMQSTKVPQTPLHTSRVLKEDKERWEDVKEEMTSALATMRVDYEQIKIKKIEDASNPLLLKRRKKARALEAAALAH
Chain of Ribosomal protein S6 kinase beta-2 (Q9UBS0 whole entry): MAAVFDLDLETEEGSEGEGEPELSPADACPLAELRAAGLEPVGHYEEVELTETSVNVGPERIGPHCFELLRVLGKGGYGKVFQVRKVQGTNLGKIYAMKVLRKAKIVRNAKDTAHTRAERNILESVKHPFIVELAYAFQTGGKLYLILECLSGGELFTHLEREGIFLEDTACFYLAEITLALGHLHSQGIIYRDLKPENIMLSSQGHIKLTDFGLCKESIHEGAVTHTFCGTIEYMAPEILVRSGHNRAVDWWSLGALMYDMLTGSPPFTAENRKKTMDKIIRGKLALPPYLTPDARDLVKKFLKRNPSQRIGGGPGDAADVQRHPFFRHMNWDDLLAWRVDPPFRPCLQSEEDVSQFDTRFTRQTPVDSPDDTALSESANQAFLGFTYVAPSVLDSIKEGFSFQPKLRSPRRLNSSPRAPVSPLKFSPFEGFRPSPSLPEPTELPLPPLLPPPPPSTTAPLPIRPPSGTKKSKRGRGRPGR

With `C=CC(=O)Nc1cc(N2CCN(C)CC2)ccc1Nc1ncc2c(n1)-n1ccc(C(=O)Nc3c(CC)cccc3CC)c1CC2` the Activity (SNU-387 [1]) was “Active”, the Activity (SNU-387 [2]) was “Active” and the Activity (Huh-7 [3]) was “Active”. For the same molecule, the Activity (HCT-116 [4]) was “Active”, the Activity (HCT-116 [5]) was “Active” and the Activity (Hep 3B2 [6]) was “Active”. The Activity (MDA-MB-468) was “Active”, the Activity (SW-620) was “Active” and the Activity (HCT-116 [7]) was “Active”. The half-life at 100 µM [8] was 84.5 h, the IC50 [9] was > 5 µM and the Activity (HCT-116 [10]) was “Active”. The Activity (Huh-7 [11]) was “Active”, the IC50 [12] was 0.0138 µM and the Activity (MDA-MB-231) was “Active”. The Activity (HLE) was “Active”, the IC50 [13] was > 5 µM and the IC50 [14] was 0.0224 µM. The Activity (SK-HEP1) was “Active”, the Activity (HCC 2998) was “Active” and the Activity (SNU-387 [15]) was “Active”. For the same molecule, the Activity (Huh-7 [16]) was “Active”, the IC50 [17] was 0.0402 µM and the Activity (Huh-7 [18]) was “Active”. For the same molecule, the Ki [19] was 0.0142 µM, the IC50 [20] was 1.65 µM and the Activity (HCT-116 [21]) was “Active”. The IC50 [22] was 0.0281 µM, the Activity (Hep 3B2 [23]) was “Active” and the Activity (Hep 3B2 [24]) was “Active”. The Activity (HT-29) was “Active”.
